Assay results from patent publication US20180237441A1, “Chemical Compounds” (GlaxoSmithKline Intellectual Property (No.2) Limited, priority 2015, published 2018).
Read-outs that look alike come from different tables or passages of the source.

Molecular target: T1, PERK (Homo sapiens, UniProt Q9NZJ5)
T1 sequence (Q9NZJ5 30-1116): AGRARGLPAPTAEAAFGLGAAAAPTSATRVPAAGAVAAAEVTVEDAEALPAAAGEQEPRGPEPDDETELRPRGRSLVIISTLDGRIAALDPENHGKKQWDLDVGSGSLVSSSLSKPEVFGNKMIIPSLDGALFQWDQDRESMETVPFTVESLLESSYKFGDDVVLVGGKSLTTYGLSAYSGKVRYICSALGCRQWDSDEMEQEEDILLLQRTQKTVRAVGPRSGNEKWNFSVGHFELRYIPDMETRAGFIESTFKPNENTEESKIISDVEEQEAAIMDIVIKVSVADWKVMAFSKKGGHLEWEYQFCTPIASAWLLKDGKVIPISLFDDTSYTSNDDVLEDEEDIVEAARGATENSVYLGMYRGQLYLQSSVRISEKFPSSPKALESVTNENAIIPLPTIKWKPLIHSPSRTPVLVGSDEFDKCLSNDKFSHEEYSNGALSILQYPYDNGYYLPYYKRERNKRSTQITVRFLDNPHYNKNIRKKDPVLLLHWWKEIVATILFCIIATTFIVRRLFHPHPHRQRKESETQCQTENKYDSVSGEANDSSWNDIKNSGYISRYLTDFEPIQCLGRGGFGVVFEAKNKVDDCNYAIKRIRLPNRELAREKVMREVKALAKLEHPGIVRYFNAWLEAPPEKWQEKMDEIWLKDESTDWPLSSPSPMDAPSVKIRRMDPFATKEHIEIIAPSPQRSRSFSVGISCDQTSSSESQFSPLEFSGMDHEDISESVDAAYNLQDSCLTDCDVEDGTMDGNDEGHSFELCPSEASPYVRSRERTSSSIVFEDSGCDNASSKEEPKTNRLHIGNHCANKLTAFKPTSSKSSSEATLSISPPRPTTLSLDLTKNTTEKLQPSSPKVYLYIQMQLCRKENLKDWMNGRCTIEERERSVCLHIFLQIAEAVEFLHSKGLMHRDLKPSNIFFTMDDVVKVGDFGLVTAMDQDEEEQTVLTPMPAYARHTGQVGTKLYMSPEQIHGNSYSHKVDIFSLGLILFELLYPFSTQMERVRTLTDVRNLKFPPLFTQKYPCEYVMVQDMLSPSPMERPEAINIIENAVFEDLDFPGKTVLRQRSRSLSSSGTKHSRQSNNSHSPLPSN
Assay: PERK enzyme assay (HTRF)
Type: biochemical
Settings: at least one experimental run
Summary of the method: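 HTRF read-out after 2 h of EDTA-quenched reactions, detecting phospho-eIF2α with Eu/APC reagents, gave IC50 values. Reaction: 0.75 nM GST-PERK, 30–60 min compound pre-incubation (max 1% DMSO), then 60 min with 40 nM biotin-eIF2α and 500 μM ATP, HEPES pH 7.5 buffer.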

[1] = PERK Enzyme (500 μM ATP) IC50, read-out: PERK Activity
[2] = 500 μM ATP, read-out: PERK Enzyme (500 μM ATP) IC50

In the case of CN1C(=O)N(c2ccc(-c3cn(C)c4ncnc(N)c34)c(F)c2)CC1c1cccc(OC(F)F)c1 (centres unmarked) [Example 73, 1-(4-(4-amino-7-methyl-7H-pyrrolo[2,3-d]pyrimidin-5-yl)-3-fluorophenyl)-4-(3-(difluoromethoxy)phenyl)-3-methylimidazolidin-2-one], the IC50 [1] is reported as 100 to 1000 nM.
CN1C(=O)N(c2ccc(-c3cn(C4CC4)c4ncnc(N)c34)c(F)c2)CC1c1cc(F)c(F)cc1F (single isomer, unassigned) [Example 161, 1-(4-(4-amino-7-cyclopropyl-7H-pyrrolo[2,3-d]pyrimidin-5-yl)-3-fluorophenyl)-3-methyl-4-(2,4,5-trifluorophenyl)imidazolidin-2-one] gave an IC50 [1] of under 100 nM.
In the case of CN1C(=O)N(c2ccc(-c3cn(C)c4ncnc(N)c34)c(F)c2)CC1c1cccnc1 (centres unmarked) [Example 60, 1-(4-(4-amino-7-methyl-7H-pyrrolo[2,3-d]pyrimidin-5-yl)-3-fluorophenyl)-3-methyl-4-(pyridin-3-yl)imidazolidin-2-one], the IC50 [1] is reported as under 100 nM.
Work on CN1C(=O)N(c2ccc(-c3cn(C)c4ncnc(N)c34)c(F)c2)CC1c1ccc(F)cc1F (single isomer, unassigned) [Example 47, 1-(4-(4-amino-7-methyl-7H-pyrrolo[2,3-d]pyrimidin-5-yl)-3-fluorophenyl)-4-(2,4-difluorophenyl)-3-methylimidazolidin-2-one] yielded an IC50 [1] of over 1000 nM.
Work on Cc1nc(N)c2c(-c3ccc(N4CC(c5cncc(F)c5)N(C)C4=O)cc3F)cn(C)c2n1 (single isomer, unassigned) [Example 111, 1-(4-(4-amino-2,7-dimethyl-7H-pyrrolo[2,3-d]pyrimidin-5-yl)-3-fluorophenyl)-4-(5-fluoropyridin-3-yl)-3-methylimidazolidin-2-one] yielded an IC50 [1] of 100 to 1000 nM.
CN1C(=O)N(c2ccc(-c3cn(C)c4ncnc(N)c34)c(F)c2)CC1C1CCCCC1 (single isomer, unassigned) [Example 63, 1-(4-(4-amino-7-methyl-7H-pyrrolo[2,3-d]pyrimidin-5-yl)-3-fluorophenyl)-4-cyclohexyl-3-methylimidazolidin-2-one] was tested, and the IC50 [1] was under 100 nM.
CCN1C(=O)N(c2ccc(-c3cn(C)c4ncnc(N)c34)c(F)c2)CC1c1cc(F)cc(C(F)(F)F)c1 (single isomer, unassigned) [Example 88, 1-(4-(4-amino-7-methyl-7H-pyrrolo[2,3-d]pyrimidin-5-yl)-3-fluorophenyl)-3-ethyl-4-(3-fluoro-5-(trifluoromethyl)phenyl)imidazolidin-2-one] showed an IC50 [2] of 192 nM and an IC50 [1] of 100 to 1000 nM.
Cn1cc(-c2ccc(N3CC(c4cc(F)ccc4F)NC3=O)cc2F)c2c(N)ncnc21 (centres unmarked) [Example 21, 1-(4-(4-amino-7-methyl-7H-pyrrolo[2,3-d]pyrimidin-5-yl)-3-fluorophenyl)-4-(2,5-difluorophenyl)imidazolidin-2-one] showed an IC50 [1] of 100 to 1000 nM.
Compound Cn1cc(-c2ccc(N3CC(c4cc(F)cc(F)c4)CC3=O)cc2)c2c(N)ncnc21 (centres unmarked) [Example 29, 1-(4-(4-amino-7-methyl-7H-pyrrolo[2,3-d]pyrimidin-5-yl)phenyl)-4-(3,5-difluorophenyl)pyrrolidin-2-one] has an IC50 [1] of 100 to 1000 nM.
In the case of Cc1nc(C2CN(c3ccc(-c4cn(C)c5ncnc(N)c45)c(F)c3)C(=O)N2C)ccc1F (single isomer, unassigned) [Example 113, 1-(4-(4-amino-7-methyl-7H-pyrrolo[2,3-d]pyrimidin-5-yl)-3-fluorophenyl)-4-(5-fluoro-6-methylpyridin-2-yl)-3-methylimidazolidin-2-one], the IC50 [1] is reported as under 100 nM.
Work on CN1C(=O)N(c2ccc(-c3cn(C4CC4)c4ncnc(N)c34)c(F)c2)CC1c1cccc(F)c1 (single isomer, unassigned) [Example 126, 1-(4-(4-amino-7-cyclopropyl-7H-pyrrolo[2,3-d]pyrimidin-5-yl)-3-fluorophenyl)-4-(3-fluorophenyl)-3-methylimidazolidin-2-one] yielded an IC50 [1] of under 100 nM.
CN1C(=O)N(c2ccc(-c3cn(C4CC4)c4ncnc(N)c34)c(F)c2)CC1c1cccc(Cl)c1 (single isomer, unassigned) [Example 152, 1-(4-(4-amino-7-cyclopropyl-7H-pyrrolo[2,3-d]pyrimidin-5-yl)-3-fluorophenyl)-4-(3-chlorophenyl)-3-methylimidazolidin-2-one] was tested, and the IC50 [1] was under 100 nM.
Compound CN1C(=O)N(c2ccc(-c3cn(CC(F)(F)F)c4ncnc(N)c34)c(F)c2)CC1c1ccc(F)cc1F (centres unmarked) [Example 82, 1-(4-(4-amino-7-(2,2,2-trifluoroethyl)-7H-pyrrolo[2,3-d]pyrimidin-5-yl)-3-fluorophenyl)-4-(2,4-difluorophenyl)-3-methylimidazolidin-2-one] has an IC50 [1] of 100 to 1000 nM.
Compound Cc1cccc(C2CC(=O)N(c3ccc(-c4cn(C)c5ncnc(N)c45)c(F)c3)C2)n1 (centres unmarked) [Example 33, 1-(4-(4-amino-7-methyl-7H-pyrrolo[2,3-d]pyrimidin-5-yl)-3-fluorophenyl)-4-(6-methylpyridin-2-yl)pyrrolidin-2-one] has an IC50 [1] of 100 to 1000 nM.
CN1C(=O)N(c2ccc(-c3cn(C)c4ncnc(N)c34)c(Cl)c2)CC1c1cc(F)cc(F)c1 (centres unmarked) [Example 121, 1-(4-(4-amino-7-methyl-7H-pyrrolo[2,3-d]pyrimidin-5-yl)-3-chlorophenyl)-4-(3,5-difluorophenyl)-3-methylimidazolidin-2-one] was tested, and the IC50 [1] was under 100 nM.
CCN1C(=O)N(c2ccc(-c3cn(C)c4ncnc(N)c34)c(F)c2)CC1c1ccc(F)cc1F (centres unmarked) [Example 23, 1-(4-(4-amino-7-methyl-7H-pyrrolo[2,3-d]pyrimidin-5-yl)-3-fluorophenyl)-4-(2,4-difluorophenyl)-3-ethylimidazolidin-2-one] was tested, and the IC50 [1] was 100 to 1000 nM.
With CN1C(=O)N(c2ccc(-c3cn(C)c4ncnc(N)c34)c(F)c2)CC1c1cc(F)cc(Cl)c1 (centres unmarked) [Example 16, 1-(4-(4-amino-7-methyl-7H-pyrrolo[2,3-d]pyrimidin-5-yl)-3-fluorophenyl)-4-(3-chloro-5-fluorophenyl)-3-methylimidazolidin-2-one] the IC50 [1] was 100 to 1000 nM.
CCN1C(=O)N(c2ccc(-c3cn(C)c4nc(C)nc(N)c34)c(F)c2)CC1c1ccc(F)cc1F (single isomer, unassigned) [Example 67, 1-(4-(4-amino-2,7-dimethyl-7H-pyrrolo[2,3-d]pyrimidin-5-yl)-3-fluorophenyl)-4-(2,4-difluorophenyl)-3-ethylimidazolidin-2-one] was tested, and the IC50 [1] was 100 to 1000 nM.
For Cc1nc(N)c2c(-c3ccc(N4CC(c5ccc(F)cc5)N(C)C4=O)cc3F)cn(C)c2n1 (single isomer, unassigned) [Example 70, 1-(4-(4-amino-2,7-dimethyl-7H-pyrrolo[2,3-d]pyrimidin-5-yl)-3-fluorophenyl)-4-(4-fluorophenyl)-3-methylimidazolidin-2-one], the IC50 [2] was 18.6 nM and the IC50 [1] was under 100 nM.
Cn1cc(-c2ccc(N3CC(c4cccc(Cl)c4F)CC3=O)cc2F)c2c(N)ncnc21 (centres unmarked) [Example 35, 1-(4-(4-amino-7-methyl-7H-pyrrolo[2,3-d]pyrimidin-5-yl)-3-fluorophenyl)-4-(3-chloro-2-fluorophenyl)pyrrolidin-2-one] was tested, and the IC50 [1] was 100 to 1000 nM.
CN1C(=O)N(c2ccc(-c3cn(C4CC4)c4ncnc(N)c34)c(F)c2)CC1c1ccc(F)cc1 (centres unmarked) [Example 162, 1-(4-(4-amino-7-cyclopropyl-7H-pyrrolo[2,3-d]pyrimidin-5-yl)-3-fluorophenyl)-4-(4-fluorophenyl)-3-methylimidazolidin-2-one] was tested, and the IC50 [1] was under 100 nM.
With “1-(4-(4-amino-2,7-dimethyl-7H- pyrrolo[2,3-d]pyrimidin-5-yl)-3- fluorophenyl)-4-(2,4-difluorophenyl)- 3-trifluoroethyl)imidazolidin-2-one [Example 83]” the IC50 [1] was 100 to 1000 nM.
For CCN1C(=O)N(c2ccc(-c3cn(C)c4ncnc(N)c34)c(F)c2)CC1c1ccc(F)c(F)c1 (centres unmarked) [Example 97, 1-(4-(4-amino-7-methyl-7H-pyrrolo[2,3-d]pyrimidin-5-yl)-3-fluorophenyl)-4-(3,4-difluorophenyl)-3-ethylimidazolidin-2-one], the IC50 [1] was under 100 nM.
Cc1nc(N)c2c(-c3ccc(N4CC(c5ccc(F)cc5)N(C)C4=O)cc3F)cn(C3CC3)c2n1 (centres unmarked) [Example 91, 1-(4-(4-amino-7-cyclopropyl-2-methyl-7H-pyrrolo[2,3-d]pyrimidin-5-yl)-3-fluorophenyl)-4-(4-fluorophenyl)-3-methylimidazolidin-2-one] gave an IC50 [1] of under 100 nM.
